In patent publication US20100267561A1, “HERBICIDAL PYRIDAZINONE DERIVATIVES” (priority 2007, published 2010):

Key:
Format in all cases: in vivo
[1] = tested on: Italian ryegrass (Lolium multiflorum); assay: Test C pre-/postemergence plant response; details: Preemergence
Text: (§1) Seeds of plant species selected from annual bluegrass (Poa annua), blackgrass (Alopecurus myosuroides), canola (Brassica rapa), downy bromegrass (Bromus tectorum), green foxtail (Setaria viridis), Italian ryegrass (Lolium multiflorum), canarygrass (Phalaris minor), pigweed (Amaranthus retroflexus), spring barley (Hordeum vulgare), spring wheat (Triticum aestivum), wild mustard (Sinapis arvensis), wild oat (Avena fatua), windgrass (Apera spica-venti), winter barley (Hordeum vulgare), and winter wheat (Triticum aestivum) were planted and treated preemergence with test chemicals formulated in a non-phytotoxic solvent mixture which included a surfactant. At the same time, plants selected from these crop and weed species were treated with postemergence applications of some of the test chemicals formulated in the same manner. Plants ranged in height from 2 to 18 cm (1- to 4-leaf stage) for postemergence treatments.
(§2) Treated plants and controls were maintained in a controlled growth environment for 15 to 25 days after which time all species were compared to controls and visually evaluated. Plant response ratings, summarized in Table C, are based on a scale of 0 to 100 where 0 is no effect and 100 is complete control. A dash (-) response means no test result.

[2] = tested on: annual bluegrass (Poa annua); assay: Test C pre-/postemergence plant response; details: Preemergence
Text: as §1, §2

[3] = tested on: blackgrass (Alopecurus myosuroides); assay: Test C pre-/postemergence plant response; details: Preemergence
Text: as §1, §2

[4] = tested on: canarygrass (Phalaris minor); assay: Test C pre-/postemergence plant response; details: Preemergence
Text: as §1, §2

[5] = tested on: downy bromegrass (Bromus tectorum); assay: Test C pre-/postemergence plant response; details: Preemergence
Text: as §1, §2

[6] = tested on: green foxtail (Setaria viridis); assay: Test C pre-/postemergence plant response; details: Preemergence
Text: as §1, §2

[7] = tested on: pigweed (Amaranthus retroflexus); assay: Test C pre-/postemergence plant response; details: Preemergence
Text: as §1, §2

[8] = tested on: spring barley (Hordeum vulgare); assay: Test C pre-/postemergence plant response; details: Preemergence
Text: as §1, §2

[9] = tested on: spring wheat (Triticum aestivum); assay: Test C pre-/postemergence plant response; details: Preemergence
Text: as §1, §2

[10] = tested on: wild mustard (Sinapis arvensis); assay: Test C pre-/postemergence plant response; details: Preemergence, 31 g ai/ha; scale 0 to 100 (0 no effect, 100 complete control)
Text: as §1, §2

[11] = tested on: wild oat (Avena fatua); assay: Test C pre-/postemergence plant response; details: Preemergence
Text: as §1, §2

[12] = tested on: windgrass (Apera spica-venti); assay: Test C pre-/postemergence plant response; details: Preemergence
Text: as §1, §2

[13] = tested on: winter barley (Hordeum vulgare); assay: Test C pre-/postemergence plant response; details: Preemergence
Text: as §1, §2

[14] = tested on: winter wheat (Triticum aestivum); assay: Test C pre-/postemergence plant response; details: Preemergence
Text: as §1, §2

[15] = tested on: canarygrass (Phalaris minor); assay: Test B postemergence plant response; details: for Plant response rating, Canarygrass: Postemergence
In short: (§3)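 Emerged plants, 1- to 4-leaf stage, treated; greenhouse 13–15 d; eye-scored vs untreated controls (0–100 scale).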

[16] = tested on: chickweed (Stellaria media); assay: Test B postemergence plant response; details: for Plant response rating, Chickweed: Postemergence
In short: as §3

[17] = 8 g ai/ha, scale 0 to 100 (0 no effect, 100 complete control)
[18] = 16 g ai/ha, scale 0 to 100 (0 no effect, 100 complete control)
[19] = 31 g ai/ha, scale 0 to 100 (0 no effect, 100 complete control)
[20] = 62 g ai/ha, scale 0 to 100, 0 no effect, 100 complete control
[21] = 8 g ai/ha, postemergence, 0-100 scale
[22] = 31 g ai/ha, scale 0 to 100, 0 no effect, 100 complete control

Cc1cn(-c2ccc(Cl)cc2)nc1-c1c(O)cnn(C)c1=O [Compound 30, 4-[1-(4-chlorophenyl)-4-methyl-1H-pyrazol-3-yl]-5-hydroxy-2-methyl-3(2H)-pyridazinone]
75: Plant response rating, Ryegrass, Italian [1, 20]
30: Plant response rating, Ryegrass, Italian [1, 18] | Plant response rating, Barley, Spring [8, 19] | Plant response rating, Oat, Wild [11, 19]
35: Plant response rating, Windgrass [12, 20]
60: Plant response rating, Ryegrass, Italian [1, 19]
80: Plant response rating, Foxtail, Green [6, 19]
0: Plant response rating, Ryegrass, Italian [1, 17] | Plant response rating, Bluegrass [2, 17] | Plant response rating, Bluegrass [2, 18] | Plant response rating, Bluegrass [2, 19] | Plant response rating, Bluegrass [2, 20] | Plant response rating, Blackgrass [3, 17] | Plant response rating, Canarygrass [4, 17] | Plant response rating, Canarygrass [4, 18] | Plant response rating, Bromegrass, Downy [5, 17] | Plant response rating, Bromegrass, Downy [5, 18] | Plant response rating, Bromegrass, Downy [5, 19] | Plant response rating, Bromegrass, Downy [5, 20] | Plant response rating, Pigweed [7, 17] | Plant response rating, Pigweed [7, 18] | Plant response rating, Pigweed [7, 19] | Plant response rating, Pigweed [7, 20] | Plant response rating, Barley, Spring [8, 17] | Plant response rating, Barley, Spring [8, 18] | Plant response rating, Wheat, Spring [9, 17] | Plant response rating, Wheat, Spring [9, 18] | Plant response rating, Wheat, Spring [9, 19] | Plant response rating, Mustard, Wild [10] | Plant response rating, Oat, Wild [11, 17] | Plant response rating, Oat, Wild [11, 18] | Plant response rating, Barley, Winter [13, 17] | Plant response rating, Barley, Winter [13, 18] | Plant response rating, Barley, Winter [13, 19] | Plant response rating, Wheat, Winter [14, 17] | Plant response rating, Wheat, Winter [14, 18] | Plant response rating, Wheat, Winter [14, 19] | Plant response rating, Wheat, Winter [14, 20]
98: Plant response rating, Blackgrass [3, 20]
25: Plant response rating, Foxtail, Green [6, 18]
65: Plant response rating, Canarygrass [4, 19]
40: Plant response rating, Oat, Wild [11, 20]
100: Plant response rating, Foxtail, Green [6, 20]
50: Plant response rating, Barley, Spring [8, 20]
20: Plant response rating, Blackgrass [3, 18] | Plant response rating, Wheat, Spring [9, 20]
90: Plant response rating, Blackgrass [3, 19] | Plant response rating, Canarygrass [4, 20]
10: Plant response rating, Foxtail, Green [6, 17]
15: Plant response rating, Barley, Winter [13, 20]

COC(=O)Oc1cnn(C)c(=O)c1-n1nc(-c2ccc(Cl)cc2)cc1C [Compound 33]
75: Plant response rating, Oat, Wild [11, 20]
95: Plant response rating, Foxtail, Green [6, 18]
20: Plant response rating, Wheat, Spring [9, 19] | Plant response rating, Barley, Winter [13, 20]
40: Plant response rating, Wheat, Winter [14, 20]
65: Plant response rating, Ryegrass, Italian [1, 18] | Plant response rating, Canarygrass [4, 19]
35: Plant response rating, Canarygrass ([15]; 16 g ai/ha, scale 0 to 100) | Plant response rating, Bromegrass, Downy [5, 18] | Plant response rating, Bromegrass, Downy [5, 19]
25: Plant response rating, Barley, Spring [8, 20] | Plant response rating, Oat, Wild [11, 18]
15: Plant response rating, Foxtail, Green [6, 17] | Plant response rating, Wheat, Winter [14, 19]
90: Plant response rating, Canarygrass [4, 20]
80: Plant response rating, Canarygrass [15, 22] | Plant response rating, Blackgrass [3, 19]
10: Plant response rating, Ryegrass, Italian [1, 17] | Plant response rating, Canarygrass [4, 18] | Plant response rating, Barley, Spring [8, 19]
0: Canarygrass plant response rating [15, 21] | Chickweed plant response rating [16, 21] | Plant response rating, Chickweed ([16]; 16 g ai/ha, scale 0 to 100) | Plant response rating, Chickweed [16, 22] | Plant response rating, Chickweed [16, 20] | Plant response rating, Bluegrass [2, 17] | Plant response rating, Bluegrass [2, 18] | Plant response rating, Bluegrass [2, 19] | Plant response rating, Bluegrass [2, 20] | Plant response rating, Blackgrass [3, 17] | Plant response rating, Canarygrass [4, 17] | Plant response rating, Bromegrass, Downy [5, 17] | Plant response rating, Pigweed [7, 18] | Plant response rating, Pigweed [7, 19] | Plant response rating, Pigweed [7, 20] | Plant response rating, Barley, Spring [8, 17] | Plant response rating, Barley, Spring [8, 18] | Plant response rating, Wheat, Spring [9, 17] | Plant response rating, Wheat, Spring [9, 18] | Plant response rating, Oat, Wild [11, 17] | Plant response rating, Windgrass [12, 17] | Plant response rating, Windgrass [12, 18] | Plant response rating, Barley, Winter [13, 17] | Plant response rating, Barley, Winter [13, 18] | Plant response rating, Barley, Winter [13, 19] | Plant response rating, Wheat, Winter [14, 17] | Plant response rating, Wheat, Winter [14, 18]
60: Plant response rating, Bromegrass, Downy [5, 20] | Plant response rating, Oat, Wild [11, 19]
100: Plant response rating, Ryegrass, Italian [1, 19] | Plant response rating, Ryegrass, Italian [1, 20] | Plant response rating, Blackgrass [3, 20] | Plant response rating, Foxtail, Green [6, 19] | Plant response rating, Foxtail, Green [6, 20]
50: Plant response rating, Blackgrass [3, 18] | Plant response rating, Wheat, Spring [9, 20] | Plant response rating, Windgrass [12, 20]
